Experimental data from patent US20100087385A1 (priority 2006, published 2010).

Tests used:
TNBS induced IBD rats = assay: Experiment III: TNBS-ethanol induced IBD in rats; format: in vivo, Wistar rats; settings: for Colonic lesion score: CON 0, M 6.00 ± 3.25; for Colon weight of length: CON 0.106 ± 0.011, M 0.376 ± 0.133; for MDA / MPO / SOD: colon homogenate; for MDA: CON 0.0360 ± 0.00632, M 0.0274 ± 0.0055; for MPO: CON 21.993 ± 2.061, M 134.038 ± 1.979; for SOD: CON 46.400 ± 8.202, M 38.005 ± 4.121
Excerpt: Wister rats were randomly divided into seven groups. There are four […] in each group, including normal control (CON) group, Model (M) group, positive control (SASP) group, diammonium glycyrrhizinate gavage administration (DI) group, diammonium glycyrrhizinate low dose (DGD) group, diammonium glycyrrhizinate medium dose (DGZ) group, and diammonium glycyrrhizinate high dose (DGG) group. No water and diets restriction were applied to mice during the period of the experiment.
Rats were anesthetized by ether. TNBS dissolved in 30% ethanol were injected into rat colon 8 cm in depth through anus with an i.v. tubing. The concentration of TNBS was 100 mg/Kg at the volumes of 0.20 ml/100 g. The rats were held up side down for 1 minute after the injection before released back to the cages.
There are seven groups total in this test. Rats in all groups were treated identically to create IBD models and the experimental conditions are described in the following.
Normal control (Con) group: Both TNBS-ethanol solution and treated drugs were replaced by normal saline. The dose of drug for treatment was 0.20 ml/100 g. Model (M) group: After creating the TNBS-ethanol induced IBD model in rats, normal saline instead of drug was used as a blank control for the comparison of drug treatment. The drug dose of IBD treatment was 0.20 ml/100 g. SASP group: SASP (22.5 mg/100 g) was used as a positive control. SASP was applied to rats through anus after ether anesthesia. Diammonium glycyrrhetate gavage administration (DI) group: Diammonium glycyrrhetate (10 mg/kg) was provided to rats by gavage after ether anesthesia. Diammonium glycyrrhetate, anal administration, low dose (DGD) group: Diammonium glycyrrhetate (2 mg/kg) was provided to rats through anus after ether anesthesia. Diammonium glycyrrhetate, anal administration, medium dose (DGZ) group: Diammonium glycyrrhetate (10 mg/kg) was provided to rats through anus after ether anesthesia. Diammonium glycyrrhetate, anal administration, high dose (DGG) group: Diammonium glycyrrhetate (50 mg/kg) was provided to rats through anus after ether anesthesia.
During the experimental period, daily activities and body weights of rats were investigated and recorded. Ten days after IBD model establishment, fasting was introduced to rats but water was provided continuously. Before sacrificing the rats, feces samples were taken for OB test; eyeballs were removed for blood sampling and serum samples were obtained after centrifugation. Radioimmunoassay kits were used to detect IL-1β, IL-6 and TNF-α in serum. The rats were cervical executed; organs of spleen and thymus were removed and weighted for the index calculation. The whole length of colon was weighted; weight per unit length of colon was calculated. The degrees of colon injury were evaluated according to the reference 23 with some modifications. We included the changes of intestinal adhesion, colon ulcer, and inflammatory as the score marks. The standard of score is same as we mentioned previously. The 3 mm colon samples were taken from the end part of colon; fixed by either neutral formaldehyde solution or 2.5% of glutaraldehyde solution for anatomy dissecting. The samples fixed by neutral formaldehyde solution were sent to perform H-E staining and immunohistochemical staining (IL-10, COX-II, and ICAM-1). The samples fixed by 2.5% of glutaraldehyde solution were photo-imaged by both scanning electron microscope and transmission electron microscope. The rest of samples were handled at ice-cold temperature to make 10% homogenization solution and stored at −20° C. for future use. MOP, SOD, MDA and amounts of tissue proteins were determined by Maehly, Pyrogallol, TBA, and Lowry methods.

[1] = tested on: IBD mice (colon injury induced by acetic acid); assay: Experiment I: acetic acid induced IBD in mice, glycyrrhizin and glycyrrhetinic acid; format: in vivo, KuMing mice; settings: glycyrrhizin 105 mg/kg, glycyrrhetinic acid 72 mg/kg; for CMDI / GSH / MPO / MDA: once per day, 10 days; for CMDI: normal 0.73 ± 0.03, model 1.75 ± 0.35; for GSH / MPO / MDA: colon homogenate; for GSH: normal 0.58 ± 0.12, model 0.16 ± 0.09; for MPO: normal 3.37 ± 0.31, model 1.33 ± 0.83; for MDA: normal 10.58 ± 2.74, model 26.2 ± 5.5
Experimental: In Adis group, mice were provided Adis 600 mg/kg afer enema, once per day. Normal control and model groups were orally given with equal amount of normal saline daily. After seven days drug treatment, all mice except for normal control were stimulated with acetic acid to induce IBD. On day six, starvation was applied after drug treatment to all groups. On day seven, after drug treatment, mice were put to sleep with ether and the procedure of enema was performed before injecting 0.1 ml of 6% acitic acid using polyethylene tubings. Acitic acid was injected into mice through anus in depth about 1.5 cm to induce IBD. One minute after the actic acid injection, wash twice with normal saline and let the animals lay down and awake naturally. For normal control, mice were treated with equal amount of saline.
Drug treatment continued to day 10 to all groups. 24 hours after the last drug treatment, the mice were sacrificed. Take and weight the whole colon, score colon organ index, and evaluate CMDI. Colon tissues were homogenized in Tris buffer and adjusted to the concentration 5% for MPO, MDA, SOD, and GSH tests.
CMDI: Cut open the mouse along the mesentery and take the whole colon. Observe peritoneal adhesion, colon ulcer, and congestion. The standard of evaluation was listed on Table 1.
Myeloperoxidase (MPO): Carefully weight tissue samples, use Tris buffer (weight to volume ratio 1:19) to prepare 5% homogenization solution by high-speed homogenizer. Handle all steps on ice. Protein concentration was determined by method Lowry and use MPO test kit.
Lipid peroxidase (MDA): TBA was used to detect MDA in the homogenization solution
Superoxide dismutas (SOD): Method of pyrogallol was used to detect the activity of SOD in the homogenization solution
Glutathione (GSH): Follow the product insert coming with the test kit to detect GSH in the samples
The total score is combined with both parts of A with B.

[2] = SASP group: 22.5 mg/100 g through anus
[3] = positive control (SASP) group: 22.5 mg/100 g through anus
[4] = injection (IP), once per day for ten days
[5] = oral, once per day for ten days
[6] = DG medium dose group, through anus 10 mg/kg
[7] = DGD group: through anus, low dose 2 mg/kg
[8] = DGG group: through anus, high dose 50 mg/kg
[9] = DGZ group: through anus, medium dose 10 mg/kg

Structure (SMILES): O=C(O)c1cc(/N=N/c2ccc(S(=O)(=O)Nc3ccccn3)cc2)ccc1O [SASP, Sulfasalazine, reference compound]
- Colonic lesion score (TNBS induced IBD rats; [2]): 3.00 ± 1.69^ΔΔ
- Colon weight of length (TNBS induced IBD rats; [2]): 0.354 ± 0.087 g/cm
- Thymus index (TNBS induced IBD rats; SASP group: 22.5 mg/100 g through anus, CON 0.9302 ± 0.0984, M 0.0319 ± 0.1504): 0.2375 ± 0.0792 mg/g
- Spleen index (TNBS induced IBD rats; SASP group: 22.5 mg/100 g through anus, CON 2.309 ± 0.135, M 3.893 ± 0.210): 3.326 ± 0.552 mg/g
- MDA (TNBS induced IBD rats; [2]): 0.0594 ± 0.0287 µmol/mg
- MPO (TNBS induced IBD rats; [2]): 44.916 ± 3.525^ΔΔ U/g
- SOD (TNBS induced IBD rats; [2]): 33.884 ± 2.656 U/ml
- HE staining of colon tissue (FIG. 3) (TNBS induced IBD rats; [3]): symptoms are reduced with no ulcers formation
- colon mucosa by scanning electron microscope (FIG. 4) (TNBS induced IBD rats; [3]): symptoms were relieved but with swelling in mucosa layer

Structure (SMILES): CC1(C)C2CC[C@]3(C)C(C(=O)C=C4C5C[C@@](C)(C(=O)O)CC[C@]5(C)CCC43C)[C@@]2(C)CC[C@@H]1O (some centres unmarked) [glycyrrhetinic acid]
- CMDI ([1]; IP injection): 1.07 ± 0.28^ΔΔ g/100 g
- GSH ([1]; IP injection): 0.31 ± 0.08^ΔΔ mg/mgpro.
- MPO ([1]; IP injection): 4.51 ± 0.35^ΔΔ U/mgpro.
- MDA ([1]; IP injection): 5.85 ± 1.33^ΔΔ nmol/mgpro.
- GSH ([1]; oral): 0.31 ± 0.08^ΔΔ mg/mgpro.
- MPO ([1]; oral): 3.48 ± 0.46^ΔΔ U/mgpro.
- MDA ([1]; oral): 4.56 ± 2.28^ΔΔ nmol/mgpro.
- CMDI of IBD mice decreased [1, 4]: 63.55%
- MPO activity increased [1, 4]: 2.39 ×
- inflammatory scores were lowered [1, 4]: 2.75 ×
- CMDI of IBD mice decreased [1, 5]: 57.65%
- MPO activity increased [1, 5]: 1.62 ×
- CMDI ([1]; oral): 1.11 ± 0.41^ΔΔ g/100 g

Structure (SMILES): CC1(C(=O)[O-])CCC2(C)CCC3(C)C(=CC(=O)C4C5(C)CCC([O-])C(C)(C)C5CCC43C)C2C1.[Na+].[Na+] (centres unmarked) [Disodium glycyrrhetate, disodium glycyrrhetate]
- HE staining of colon tissue (FIG. 3) (TNBS induced IBD rats; DG gavage administration group, 10 mg/kg): less severe of symptoms with no ulcer formation
- HE staining of colon tissue (FIG. 3) (TNBS induced IBD rats; DG high dose group, through anus 50 mg/kg): relieved symptoms and no ulcer formation is observed
- HE staining of colon tissue (FIG. 3) (TNBS induced IBD rats; DG low dose group, through anus 2 mg/kg): relatively severe symptoms but without ulcer formation
- HE staining of colon tissue (FIG. 3) (TNBS induced IBD rats; [6]): no ulcer formation is seen
- colon mucosa by scanning electron microscope (FIG. 4) (TNBS induced IBD rats; [6]): relieved symptoms with less swelling
- Colonic lesion score (TNBS induced IBD rats; DGD group: through anus, low dose 2 mg/kg (table head: mg/100 g)): 3.00 ± 1.69^ΔΔ
- Colon weight of length (TNBS induced IBD rats; [7]): 0.385 ± 0.218 g/cm
- Colonic lesion score (TNBS induced IBD rats; DGG group: through anus, high dose 50 mg/kg (table head: mg/100 g)): 1.50 ± 0.89^ΔΔ
- Colon weight of length (TNBS induced IBD rats; [8]): 0.174 ± 0.059 g/cm
- Colonic lesion score (TNBS induced IBD rats; DGZ group: through anus, medium dose 10 mg/kg (table head: mg/100 g)): 2.50 ± 1.39^ΔΔ
- Colon weight of length (TNBS induced IBD rats; [9]): 0.177 ± 0.065 g/cm
- Colonic lesion score (TNBS induced IBD rats; DI group: gavage, 10 mg/kg (table head: mg/100 g)): 2.00 ± 1.20^ΔΔ
- Colon weight of length (TNBS induced IBD rats; DI group: gavage, 10 mg/kg): 0.240 ± 0.085 g/cm
- MDA (TNBS induced IBD rats; [7]): 0.0431 ± 0.0243 µmol/mg
- MPO (TNBS induced IBD rats; [7]): 141.993 ± 2.494 U/g
- SOD (TNBS induced IBD rats; [7]): 28.847 ± 16.942 U/ml
- MDA (TNBS induced IBD rats; [8]): 0.0338 ± 0.0115 µmol/mg
- MPO (TNBS induced IBD rats; [8]): 111.753 ± 24.864 U/g
- SOD (TNBS induced IBD rats; [8]): 59.984 ± 3.205^Δ U/ml
- MDA (TNBS induced IBD rats; [9]): 0.0365 ± 0.0151 µmol/mg
- MPO (TNBS induced IBD rats; [9]): 83.868 ± 16.465^Δ U/g
- SOD (TNBS induced IBD rats; [9]): 46.095 ± 8.065 U/ml
- MDA (TNBS induced IBD rats; DI group: gavage, 10 mg/kg): 0.0907 ± 0.0302 µmol/mg
- MPO (TNBS induced IBD rats; DI group: gavage, 10 mg/kg): 100.576 ± 10.137^ΔΔ U/g
- SOD (TNBS induced IBD rats; DI group: gavage, 10 mg/kg): 18.774 ± 8.700 U/ml
